# Where two headings read alike, the source gives them in different places.
# Columns and labels:
# Escherichia coli [1] = experiment: Neutropenic murine thigh infection model, PK/PD Emax fitting; format: in vivo; settings: 50 mg/kg meropenem alone q2h (without pralurbactam); strains 18-W40-096 and ATCC BAA-2452
# Method: (§1) Mice (SPF grade, female, 25–30 g, 6–7 weeks) were provided by Beijing Huafukang Biotechnology Co. The animal study was reviewed and approved by the Animal Ethics Committee of State Key Laboratory of Biotherapy, Sichuan University (approval letter No.: 20190923035). All experimental animals from the study were intraperitoneally injected with cyclophosphamide (solution using 0.9% sodium chloride injection to achieve a concentration of 15 mg/ml) at a dose of 150 mg/kg at 4 days and 1 day prior to the day of infection to form immunocompromised mouse models. The hair on both thighs of the mice was shaved off 2 h before inoculation. The injection site was disinfected with 75% alcohol before intramuscular injection and dried with skimmed cotton. The mouse was challenged by inoculum of 1 × 10^8 CFU/ml of the test strain via injection of 50 μl of bacterial solution into both thighs. The time was referred to as t = 0 h, 2 h after the mice were infected. The control mice were euthanized at this time to record the initial bacterial colonies by taking the thigh muscle. The specific dosage of pralurbactam or meropenem for each dosing regimen was intraperitoneally injected (t = 0 h). At 26 h after the mice were infected (t = 24 h), the mice (experimental group) in each dosage cohort were euthanized to record the bacterial load to calculate CFU change (Δlog10 CFU).
# K. pneumoniae = experiment: Susceptibility testing (MIC); format: cell-based; settings: drug alone
# Excerpt: (§2) The study used a total of […] strains of KPC-, NDM-, or OXA-producing Enterobacterales (three strains of K. pneumoniae and four strains of E. coli), which were provided by Microbiology Division, Institute of Antibiotics, Huashan Hospital, Fudan University. Quality control strains are selected for each bacteria.
# (§3) Supplementary Table 1 Susceptibility testing results of meropenem alone, pralurbactam alone, or meropenem with FL058 in combination against K. pneumoniae and E. coli
# E. coli = experiment: Susceptibility testing (MIC); format: cell-based; settings: drug alone
# Excerpt: as §2, §3
# [2] = Single-dose intraperitoneal PK of pralurbactam in mice plasma (UPLC-MS/MS, one-compartment model, population PK); format: in vivo; settings: for Dose proportionality of Cmax or AUCinf (PK linearity): 5-500 mg/kg ip, non-compartmental regression analysis
# Excerpt: The ultra-high performance liquid chromatography-tandem mass spectrometry (UPLC-MS/MS) system consisted of an LC-30A UPLC (Shimadzu Corporation, Japan) equipped with an Atlantis® T3 (3 μm, 2.1 × 100 mm) column, liquidity, and the cleaning solution mixed with formic acid, ammonium acetate, and acetonitrile, an API5500 mass spectrometer (AB SCIEX, USA). The retention times of chromatographic peaks and mass-to-charge ratios were obtained by MRM scanning pralurbactam (m/z 383.2 → 303.0), meropenem (m/z 384.1 → 141.2), internal standards pralurbactam-D4 (m/z 387.3 → 307.1), and meropenem-D6 (m/z 390.1 → 147.2) for peak identification. The drug concentration in the samples was calculated using Watson LIMS (version 7.5).
# The UPLC-MS/MS method used to measure pralurbactam and meropenem concentrations in mice plasma was validated accurately in terms of selectivity, interaction, matrix effect, calibration curve, linearity, precision, accuracy, recovery, and stability. […] At this LLOQ level, the intra- and inter-assay precision was 3.5%–9.0% and 6.3% for pralurbactam, 5.0%–10.7% and 14.3% for meropenem. The overall recovery of pralurbactam and meropenem was 81.2% and 58.6%, respectively, and the corresponding coefficient of variation (CV) was 8.0% and 5.4%. This assay method was applied to quantify pralurbactam and meropenem for PK study.
# The administration method for pralurbactam or meropenem (dissolved in sterile water) is single-dose intraperitoneal injection. […] Five mice were randomly selected for anesthesia and orbital blood sampling at each time-point (0.083, 0.25, 0.5, 1, 2, 3, 4, and 6 h) after dosing. A blood sample (600–800 μl) was obtained from the mouse immediately. Each mouse selected for blood sampling at each time point was euthanized immediately. The concentrations of pralurbactam and meropenem in plasma samples were determined using the validated UPLC-MS/MS method. PK parameters (including non-compartmental parameter linear fitting and compartmental simulation) of pralurbactam and meropenem in plasma were calculated using Phoenix WinNonlin (version 8.1, Certara Corporation). The compartmental PK parameters of pralurbactam were used to calculate the fCmax, fAUC0–24, and %fT > CT. The free fraction of pralurbactam was 100% based on in vitro mouse plasma.
# In this study, the PK parameters of pralurbactam were calculated for each dosage cohort using Phoenix WinNonlin software based on the mean plasma concentrations at each sampling point in mice. The mean values of the PK parameters were used to simulate the potential PK/PD indices. Another method, the PK parameters could be estimated by the population PK (PPK) model using NONMEM software based on the pooled plasma concentrations. The estimated typical values of Ke and V/F based on the population PK model of pralurbactam were generally consistent with the classical mean values of Ke (PPK: 2.34 h^1 vs. classical PK: 2.55 h^1) and V/F (PPK: 0.719 L vs. classical PK: 0.72 L).
# [3] = Free fraction in in vitro mouse plasma; format: in vitro ADME
# [4] = human, in vivo, cited from earlier work
# [5] = system: class A, C, and D β-lactamases; set-up: method as in Sharma et al., 2016; settings: ref Sharma et al., 2016; cited from earlier work
# Klebsiella pneumoniae = experiment: Neutropenic murine thigh infection model, PK/PD Emax fitting; format: in vivo; settings: fixed 100 mg/kg q2h of meropenem; strains 17-R1-16, 20-W2-70, ATCC BAA-1705
# Method: as §1
# Escherichia coli [6] = settings: cited from earlier work
# [7] = mean of all dosage cohorts, classical one-compartment PK
# [8] = population PK (PPK) model, NONMEM, typical value, pooled plasma concentrations
# [9] = pralurbactam 5 mg/kg ip single dose, alone, one-compartment model
# [10] = pralurbactam 50 mg/kg ip single dose, alone, one-compartment model
# [11] = pralurbactam 50 mg/kg ip, combined with meropenem 100 mg/kg, one-compartment model
# [12] = pralurbactam 250 mg/kg ip, combined with meropenem 100 mg/kg, one-compartment model
# [13] = pralurbactam 500 mg/kg ip single dose, alone, one-compartment model
structure (smiles),measurement,setting,value
C[C@@H](O)[C@H]1C(=O)N2C(C(=O)O)=C(S[C@@H]3CN[C@H](C(=O)N(C)C)C3)[C@H](C)[C@H]12 [Meropenem],Growth inhibition in thigh model,Escherichia coli [1],significant growth inhibition
same,MIC,"K. pneumoniae; 17-R1-16 (KPC-2, CTX-M-14)",> 64 µg/mL
same,MIC,K. pneumoniae; 20-W2-70 (OXA-48),32 µg/mL
same,MIC,K. pneumoniae; ATCC BAA-1705 (KPC-2),16 µg/mL
same,MIC,E. coli; 18-W32-020 (NDM-5),32 µg/mL
same,MIC,E. coli; 18-W39-088 (NDM-1),> 64 µg/mL
same,MIC,E. coli; 18-W40-096 (NDM-1),64 µg/mL
same,MIC,E. coli; ATCC BAA-2452 (NDM-1),32 µg/mL
N=C(N)NOCCONC(=O)[C@@H]1CC[C@@H]2CN1C(=O)N2OS(=O)(=O)O [Pralurbactam],%fT > 1 mg/L,[2]; 50 mg/kg q2h pralurbactam intraperitoneally in mice,88%
same,Dose proportionality of Cmax or AUCinf (PK linearity),[2],linear
same,Dose proportionality of Cmax or AUCinf (PK linearity),[2]; listed as pralurbactam,dose proportional
same,Ka,[2]; [7],50.2 h^1
same,Ke,[2]; [7],2.55 h^1
same,V/F,[2]; [7],0.72 L
same,Ka,"[2]; median value of dosage cohorts, classical PK",26.0 h^1
same,Ka,"[2]; population PK (PPK) model, NONMEM, estimate",29.1 h^1
same,Ke,[2]; [8],2.34 h^1
same,V/F,[2]; [8],0.719 L
same,Ka,[2]; [9],27.4 h^1
same,Ke,[2]; [9],2.24 h^1
same,V/F,[2]; [9],0.77 L
same,Ka,[2]; [10],13.7 h^1
same,Ke,[2]; [10],3.83 h^1
same,V/F,[2]; [10],0.55 L
same,Ka,[2]; [11],24.5 h^1
same,Ke,[2]; [11],2.11 h^1
same,V/F,[2]; [11],0.79 L
same,Ka,[2]; [12],26.0 h^1
same,Ke,[2]; [12],1.93 h^1
same,V/F,[2]; [12],0.91 L
same,Ka,[2]; [13],159.4 h^1
same,Ke,[2]; [13],2.64 h^1
same,V/F,[2]; [13],0.57 L
same,Free fraction,[3],100%
same,%fT > 1 mg/L,[4]; iv,86%
same,"Safety, tolerance and PK profiles",[4],"good safety, tolerance, and PK profiles"
same,Activity against β-lactamases in vitro,[5],active
same,Pralurbactam dose in the combination that inhibits growth of all test strains,Klebsiella pneumoniae,at least 25 mg/kg
same,Activity of pralurbactam alone,"Escherichia coli [6]; ref Huang et al., 2024a",partial activity
same,Inhibitory effect of pralurbactam alone,Escherichia coli [6]; ref in vitro susceptibility study (to be published),notable inhibitory effects
same,MIC,"K. pneumoniae; 17-R1-16 (KPC-2, CTX-M-14)",> 64 µg/mL
same,MIC,K. pneumoniae; 20-W2-70 (OXA-48),8 µg/mL
same,MIC,K. pneumoniae; ATCC BAA-1705 (KPC-2),4 µg/mL
same,MIC,E. coli; 18-W32-020 (NDM-5),2 µg/mL
same,MIC,E. coli; 18-W39-088 (NDM-1),4 µg/mL
same,MIC,E. coli; 18-W40-096 (NDM-1),4 µg/mL
same,MIC,E. coli; ATCC BAA-2452 (NDM-1),4 µg/mL

# — paper PMC11685127, “Pharmacokinetic/pharma-codynamic study of pralurbactam (FL058) combined with meropenem in a neutropenic murine thigh infection model” (Frontiers in Microbiology, 2024)
